Source: paper PMC7156458, “Synthetic biology based construction of biological activity-related library of fungal decalin-containing diterpenoid pyrones” (Nature Communications, 2020)

Biological target: Aβ42 (Homo sapiens, UniProt P05067)
Assay: Th-T (thioflavin-T) assay of Aβ42 aggregation
Assay type: biochemical
Details: for Th-T fluorescence of Aβ42 (sheet Fig. 7a), mean of three wells: head suffix _50 (concentration 50); for Th-T assay plate reading, mean of three wells (Supplementary Fig. 47): source data, Ab alone and No Ab as controls

Aβ42, sequence (P05067 672-713): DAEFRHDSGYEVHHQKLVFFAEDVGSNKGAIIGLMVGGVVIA

`C=C1CC[C@@H]2[C@](C)(CC[C@H]3O[C@H](C=C(C)C)C[C@@]23C)[C@@H]1Cc1c(OC)oc(CO)c(C)c1=O` [Compound 20] was tested, and the “Th-T fluorescence of Aβ42 (sheet Fig. 7a), mean of three wells” value (“Th-T fluorescence of Aβ42” for short) (reading M73) was 2.113, the “Th-T fluorescence of Aβ42” value (reading M74) was 2.11 and the “Th-T fluorescence of Aβ42” value (reading M75) was 2.1032. For the same molecule, the “Th-T fluorescence of Aβ42” value (reading M76) was 2.123, the “Th-T fluorescence of Aβ42” value (reading M77) was 2.122 and the “Th-T fluorescence of Aβ42” value (reading M78) was 2.117. The “Th-T fluorescence of Aβ42” value (reading M79) was 2.1153, the “Th-T fluorescence of Aβ42” value (reading M80) was 2.1 and the “Th-T fluorescence of Aβ42” value (reading M81) was 2.1. The “Th-T fluorescence of Aβ42” value (reading M82) was 2.102, the “Th-T fluorescence of Aβ42” value (reading M83) was 2.096 and the “Th-T fluorescence of Aβ42” value (reading M84) was 2.077. For the same molecule, the “Th-T assay plate reading, mean of three wells (Supplementary Fig. 47)” value (from here on “Th-T assay plate reading, mean”) (measurement M1) was 0.2292, the “Th-T assay plate reading, mean” value (measurement M2) was 0.2238 and the “Th-T assay plate reading, mean” value (measurement M3) was 0.2417. The “Th-T assay plate reading, mean” value (measurement M4) was 0.2884, the “Th-T assay plate reading, mean” value (measurement M5) was 0.3754 and the “Th-T assay plate reading, mean” value (measurement M6) was 0.3834. The “Th-T assay plate reading, mean” value (measurement M7) was 0.4602, the “Th-T assay plate reading, mean” value (measurement M8) was 0.4852 and the “Th-T assay plate reading, mean” value (measurement M9) was 0.5189. The “Th-T assay plate reading, mean” value (measurement M10) was 0.5747, the “Th-T assay plate reading, mean” value (measurement M11) was 0.6382 and the “Th-T assay plate reading, mean” value (measurement M12) was 0.9536. The “Th-T assay plate reading, mean” value (measurement M13) was 1.7846, the “Th-T assay plate reading, mean” value (measurement M14) was 2.679 and the “Th-T assay plate reading, mean” value (measurement M15) was 3.243. The “Th-T assay plate reading, mean” value (measurement M16) was 3.548, the “Th-T fluorescence, mean of three wells (Fig. 7a)” value (“Th-T fluorescence, mean” for short) (reading M107, compound at 10 (head suffix _10)) was 3.243 and the “Th-T fluorescence, mean” value (reading M107, compound at 20 (head suffix _20)) was 3.218. The “Th-T fluorescence, mean” value (reading M107, compound at 50 (head suffix _50)) was 2.093, the “Th-T fluorescence, mean” value (reading M108, compound at 10 (head suffix _10)) was 3.266 and the “Th-T fluorescence, mean” value (reading M108, compound at 20 (head suffix _20)) was 3.22. For the same molecule, the “Th-T fluorescence, mean” value (reading M108, compound at 50 (head suffix _50)) was 2.097, the “Th-T fluorescence, mean” value (reading M109, compound at 10 (head suffix _10)) was 3.248 and the “Th-T fluorescence, mean” value (reading M109, compound at 20 (head suffix _20)) was 3.217. The “Th-T fluorescence, mean” value (reading M109, compound at 50 (head suffix _50)) was 2.11, the “Th-T fluorescence, mean” value (reading M110, compound at 10 (head suffix _10)) was 3.266 and the “Th-T fluorescence, mean” value (reading M110, compound at 20 (head suffix _20)) was 3.23. For the same molecule, the “Th-T fluorescence, mean” value (reading M110, compound at 50 (head suffix _50)) was 2.1005, the “Th-T fluorescence, mean” value (reading M111, compound at 10 (head suffix _10)) was 3.255 and the “Th-T fluorescence, mean” value (reading M111, compound at 20 (head suffix _20)) was 3.22. For the same molecule, the “Th-T fluorescence, mean” value (reading M111, compound at 50 (head suffix _50)) was 2.105, the “Th-T fluorescence, mean” value (reading M112, compound at 10 (head suffix _10)) was 3.256 and the “Th-T fluorescence, mean” value (reading M112, compound at 20 (head suffix _20)) was 3.191. The “Th-T fluorescence, mean” value (reading M112, compound at 50 (head suffix _50)) was 2.0956, the “Th-T fluorescence, mean” value (reading M113, compound at 10 (head suffix _10)) was 3.234 and the “Th-T fluorescence, mean” value (reading M113, compound at 20 (head suffix _20)) was 3.181. For the same molecule, the “Th-T fluorescence, mean” value (reading M113, compound at 50 (head suffix _50)) was 2.0902, the “Th-T fluorescence, mean” value (reading M114, compound at 10 (head suffix _10)) was 3.244 and the “Th-T fluorescence, mean” value (reading M114, compound at 20 (head suffix _20)) was 3.188. The “Th-T fluorescence, mean” value (reading M114, compound at 50 (head suffix _50)) was 2.0998, the “Th-T fluorescence, mean” value (reading M115, compound at 10 (head suffix _10)) was 3.222 and the “Th-T fluorescence, mean” value (reading M115, compound at 20 (head suffix _20)) was 3.199. For the same molecule, the “Th-T fluorescence, mean” value (reading M115, compound at 50 (head suffix _50)) was 2.1006, the “Th-T fluorescence, mean” value (reading M116, compound at 10 (head suffix _10)) was 3.244 and the “Th-T fluorescence, mean” value (reading M116, compound at 20 (head suffix _20)) was 3.193.
